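GI50 = concentration required for 50% inhibition of growth. Definition used: TGI = concentration required for complete inhibition of growth.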
How the values were obtained:
Experiment in all cases: growth of human tumour cells (NCI), 384-well format
[1] = test system: COLO 205 colon
[2] = test system: HCT-15 colon
[3] = test system: HT29 colon
[4] = test system: K-562 leukemia
[5] = test system: KM12 colon
[6] = test system: MDA-MB-468 breast
[7] = test system: MOLT-4 leukemia
[8] = test system: OVCAR-3 ovarian
[9] = test system: RPMI-8226 leukemia
[10] = test system: SK-MEL-28 melanoma
[11] = test system: SK-MEL-5 melanoma
[12] = test system: SN12C renal
[13] = test system: UACC-62 melanoma

C[C@@H](C(=O)Nc1ccc(Cl)cc1)C1CCC(c2ccnc3ccc(F)cc23)CC1 (stereo partly specified)
GI50 [1]: 17.4 µM
TGI [1]: > 62.3 µM
GI50 [2]: 11.8 µM
TGI [2]: 25.6 µM
GI50 [3]: 9.74 µM
TGI [3]: 23.1 µM
GI50 [4]: 3.38 µM
TGI [4]: 13.7 µM
GI50 [5]: 5.81 µM
TGI [5]: 19.8 µM
GI50 [6]: 2.17 µM
TGI [6]: 8.1 µM
GI50 [7]: 2.22 µM
TGI [7]: 6.85 µM
GI50 [8]: 7.15 µM
TGI [8]: 19.9 µM
GI50 [9]: 2.58 µM
TGI [9]: 7.6 µM
GI50 [10]: 20.6 µM
TGI [10]: > 92 µM
GI50 [11]: 4.31 µM
TGI [11]: 16.2 µM
GI50 [12]: 12.7 µM
TGI [12]: 28.2 µM
GI50 [13]: 14.9 µM
TGI [13]: 29.3 µM

Reference: PubChem BioAssay (NCI)
